“Also recorded” adds a separate entry of the source.
Legend:
microorganisms [1] = test: Morphology, biofilm and growth disrupting peptides (Table 5); type: cell-based; set-up: key: A: Peptide aggregates; B: Less hyphal formation; Clumps; Diffuse clumps and small polyps; F: Diffuse growth; H: Thin; I: Growth inhibition; Microcolony formation; Rippled; Small polyps; Thick; W: Halo formation on top, microlonies on bottom
Description: In certain embodiments peptides that induce alterations in phenotype or other biological activities can also be used as antimicrobial effector moieties.

microorganisms [2] = test: Peptide activities: targeting/binding, antimicrobial, growth or phenotype altering (Tables 7, 8); type: cell-based; conditions: peptides having multiple activities
microorganisms [3] = test: Targeting peptide binding to target microorganisms (Tables 3, 10, 12); conditions: microorganism(s) the targeting peptide binds; binding in aqueous buffers varied with peptide solubility, preferably 1x PBS

Substance | Organism, effect (microorganisms [1]; C. albicans) | Organism, effect (microorganisms [1]; E. faecalis) | Organism, effect (microorganisms [1]; S. pneumoniae) | Activities (microorganisms [2]) | Target(s) (microorganisms [3]) | Organism, effect (microorganisms [1]; C. jeikeium) | Organism, effect (microorganisms [1]; MRSA) | Organism, effect (microorganisms [1]; S. epidermidis) | Organism, effect (microorganisms [1]; B. subtilis)
PF-617: peptide having multiple activities (chain 1 PMNAAEPE; chain 2 PMNAAEPE; Peptide with targeting and/or antimicrobial activity) | C. albicans (H) | E. faecalis (H) | S. pneumoniae (I) | G B | P. aeruginosa; also recorded: C. albicans | – | – | – | –
PF-621: peptide having multiple activities (chain 1 PPSSFLV; chain 2 PPSSFLV; Peptide with targeting and/or antimicrobial activity) | – | E. faecalis (H) | S. pneumoniae (I) | G B | S. epidermidis; also recorded: C. albicans | – | – | – | –
PF-622: peptide having multiple activities (chain 1 TREDVFSVRLINNIVNKQA; chain 2 TREDVFSVRLINNIVNKQA; Peptide with targeting and/or antimicrobial activity) | – | E. faecalis (D) | S. pneumoniae (M) | G B | S. epidermidis; also recorded: P. aeruginosa; also recorded: C. albicans; also recorded: S. pneumoniae; also recorded: E. faecalis; also recorded: C. jeikeium | C. jeikeium (D) | MRSA (D) | S. epidermidis (D) | –
PF-623: peptide having multiple activities (chain 1 VLFAVYLGALDWLFSWLTQKM; chain 2 VLFAVYLGALDWLFSWLTQKM; Peptide with targeting and/or antimicrobial activity) | – | E. faecalis (D) | S. pneumoniae (D) | G B | S. epidermidis and P. aeruginosa and MRSA and S. pneumoniae and E. faecalis and C. jeikeium | C. jeikeium (R) | MRSA (D) | S. epidermidis (M) | –
PF-625: peptide having multiple activities (chain 1 SDSTNNARTRKKARDVTTKDIDK; chain 2 SDSTNNARTRKKARDVTTKDIDK; Peptide with targeting and/or antimicrobial activity) | – | – | S. pneumoniae (H) | G B | S. epidermidis; also recorded: M. luteus; also recorded: S. pneumoniae; also recorded: C. jeikeium | – | – | – | –
PF-626: peptide having multiple activities (chain 1 KYDFDDFEPEEA; chain 2 KYDFDDFEPEEA; Peptide with targeting and/or antimicrobial activity) | – | – | S. pneumoniae (H) | G B | S. epidermidis and M. luteus and E. coli and C. albicans and MRSA and S. pneumoniae and E. faecalis and C. jeikeium | – | – | – | –
PF-627: peptide having multiple activities (chain 1 INDLLSYFTLHEK; chain 2 INDLLSYFTLHEK; Peptide with targeting and/or antimicrobial activity) | C. albicans (B) | E. faecalis (H) | S. pneumoniae (I) | G B | S. epidermidis and P. aeruginosa and MRSA and S. pneumoniae and E. faecalis and C. jeikeium | – | MRSA (R) | S. epidermidis (H) | –
PF-629: peptide having multiple activities (chain 1 GLAAIATVFALY; chain 2 GLAAIATVFALY; Peptide with targeting and/or antimicrobial activity) | – | E. faecalis (R) | S. pneumoniae (M) | G B | S. epidermidis and P. aeruginosa and C. albicans and MRSA and S. pneumoniae and E. faecalis and C. jeikeium | C. jeikeium (R) | MRSA (D) | S. epidermidis (C) | –
PF-631: peptide having multiple activities (chain 1 LIIYFSKTGNTARATRQI; chain 2 LIIYFSKTGNTARATRQI; Peptide with targeting and/or antimicrobial activity) | – | E. faecalis (H) | S. pneumoniae (I) | G B | S. epidermidis and P. aeruginosa and C. albicans and MRSA and S. pneumoniae and E. faecalis and C. jeikeium | – | – | – | –
PF-632: peptide having multiple activities (chain 1 TTIQGVASLEKHGFRYTIIYPTRI; chain 2 TTIQGVASLEKHGFRYTIIYPTRI; Peptide with targeting and/or antimicrobial activity) | C. albicans (B) | E. faecalis (D) | S. pneumoniae (M) | G B | S. epidermidis and P. aeruginosa and C. albicans and MRSA and S. pneumoniae and E. faecalis and C. jeikeium | C. jeikeium (D) | MRSA (D) | S. epidermidis (D) | B. subtilis (H)
PF-636: peptide having multiple activities (chain 1 LVRLA; chain 2 LVRLA; Peptide with targeting and/or antimicrobial activity) | C. albicans (B) | E. faecalis (H) | S. pneumoniae (H) | G B | S. epidermidis and C. albicans and MRSA and S. pneumoniae and E. faecalis | – | – | – | B. subtilis (H)
PF-637: peptide having multiple activities (chain 1 SRIKQDARSVRKYDRIGIFFYSFKSA; chain 2 SRIKQDARSVRKYDRIGIFFYSFKSA; Peptide with targeting and/or antimicrobial activity) | – | E. faecalis (D) | S. pneumoniae (M) | G B | S. epidermidis and P. aeruginosa and C. albicans and MRSA and S. pneumoniae and E. faecalis and C. jeikeium | C. jeikeium (D) | MRSA (M) | S. epidermidis (M) | –
PF-638: peptide having multiple activities (chain 1 TFILPK; chain 2 TFILPK; Peptide with targeting and/or antimicrobial activity) | – | E. faecalis (H) | S. pneumoniae (I) | G B | S. epidermidis and C. albicans and MRSA and C. jeikeium | – | MRSA (M) | S. epidermidis (R) | –
PF-639: peptide having multiple activities (chain 1 QATQIKSWIDRLLVSED; chain 2 QATQIKSWIDRLLVSED; Peptide with targeting and/or antimicrobial activity) | C. albicans (B) | E. faecalis (H) | S. pneumoniae (I) | G B | S. pneumoniae; also recorded: C. jeikeium | – | MRSA (R) | – | –
PF-640: peptide having multiple activities (chain 1 MGDINRNF; chain 2 MGDINRNF; Peptide with targeting and/or antimicrobial activity) | C. albicans (B) | E. faecalis (H) | S. pneumoniae (I) | G B | C. albicans | – | – | – | –
PF-642: peptide having multiple activities (chain 1 FTTPMIGIPAGLLGGSYYLKRREEKGK; chain 2 FTTPMIGIPAGLLGGSYYLKRREEKGK; Peptide with targeting and/or antimicrobial activity) | – | – | – | G B | M. luteus and MRSA and C. jeikeium | – | MRSA (M) | – | –
PF-655: peptide having multiple activities (chain 1 DAPCFDDQFGDLKCQMC; chain 2 DAPCFDDQFGDLKCQMC; Peptide with targeting and/or antimicrobial activity) | – | – | S. pneumoniae (H) | G B | M. smegmatis | – | MRSA (M) | S. epidermidis (R) | B. subtilis (H)

Source: patent US20110039763A1, “TARGETED ANTIMICROBIAL MOIETIES” (C3 JIAN, INC., priority 2009, published 2011)
